One series concerns the target T1, human μ-calpain (Homo sapiens, UniProt P07384).
T1 construct: purchased Calbiochem
T1 sequence (P07384 1-714): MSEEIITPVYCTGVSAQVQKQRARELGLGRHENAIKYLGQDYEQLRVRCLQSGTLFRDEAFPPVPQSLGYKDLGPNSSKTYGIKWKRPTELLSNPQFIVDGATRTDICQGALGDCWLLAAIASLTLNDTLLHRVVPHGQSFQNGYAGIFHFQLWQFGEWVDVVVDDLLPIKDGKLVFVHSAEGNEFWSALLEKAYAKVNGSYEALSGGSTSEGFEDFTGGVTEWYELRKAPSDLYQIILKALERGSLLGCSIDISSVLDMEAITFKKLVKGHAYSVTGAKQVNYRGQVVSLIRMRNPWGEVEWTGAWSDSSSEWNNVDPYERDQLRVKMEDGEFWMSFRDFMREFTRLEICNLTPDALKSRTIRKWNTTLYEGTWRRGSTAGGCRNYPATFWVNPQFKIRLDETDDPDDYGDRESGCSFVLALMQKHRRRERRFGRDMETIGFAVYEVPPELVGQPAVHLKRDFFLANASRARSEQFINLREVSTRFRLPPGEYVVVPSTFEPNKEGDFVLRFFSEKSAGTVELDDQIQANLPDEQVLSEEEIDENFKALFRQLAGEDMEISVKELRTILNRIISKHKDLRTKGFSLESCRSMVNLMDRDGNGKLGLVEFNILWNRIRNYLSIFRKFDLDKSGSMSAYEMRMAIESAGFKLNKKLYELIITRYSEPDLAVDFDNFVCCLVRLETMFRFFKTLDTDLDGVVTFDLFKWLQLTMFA
T1 sequence (P04632 1-268 partner): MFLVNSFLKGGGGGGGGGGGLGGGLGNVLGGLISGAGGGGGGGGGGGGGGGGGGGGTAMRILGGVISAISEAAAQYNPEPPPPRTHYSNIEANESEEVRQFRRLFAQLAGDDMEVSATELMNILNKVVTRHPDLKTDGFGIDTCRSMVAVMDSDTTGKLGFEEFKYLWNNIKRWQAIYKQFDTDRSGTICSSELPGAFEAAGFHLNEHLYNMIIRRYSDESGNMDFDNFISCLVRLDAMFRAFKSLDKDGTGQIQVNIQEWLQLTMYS
Description: Enzymatic Calpain Inhibition Assay. Type of series: biochemical. As to conditions: enzymatic calpain I inhibition; read-out: Calp I IC50. As for the experimental part: The Ki value was also determined in some cases. These criteria were used to measure the inhibitory effect of the compounds (I) on calpain I, calpain II and cathepsin B.
The inhibitory properties of calpain inhibitors are tested in 100 μl of a buffer containing 100 mM imidazole pH 7.5, 5 mM L-Cystein-HCl, 5 mM CaCl2, 250 μM of the calpain fluorogenic substrate Suc-Leu-Tyr-AMC (Sigma) (Sasaki et al., J. Biol. Chem., 1984, 259, 12489-12949) dissolved in 2.5 μl DMSO and 0.5 μg of human μ-calpain (Calbiochem). The inhibitors dissolved in 1 μl DMSO are added to the reaction buffer. The fluorescence of the cleavage product 7-amino-4-methylcoumarin (AMC) is followed in a SPECTRAmax GEMINI XS (Molecular Device) fluorimeter at λex=360 nm and λem=440 nm at 30° C. during 30 min at intervals of 30 sec in 96-well plates (Greiner). The initial reaction velocity at different inhibitor concentrations is plotted against the inhibitor concentration and the IC50 values determined graphically.

Series [1] has as its system cellular calpains in C2C12 myoblasts. Kind of series: Calpain Inhibition Assay in C2C12 Myoblasts. Type of series: cell-based. As to conditions: read-out: Calp I IC50 Myoblast. As for the experimental part: This assay is aimed at monitoring the ability of the substance to inhibit cellular calpains. C2C12 myoblasts are grown in 96-well plates in growth medium (DMEM, 20% foetal calf serum) until they reach confluency. The growth medium is then replaced by fusion medium (DMEM, 5% horse serum). 24 hours later the fusion medium is replaced by fusion medium containing the test substances dissolved in 1 μl DMSO. After 2 hours of incubation at 37° C. the cells are loaded with the calpain fluorogenic substrate Suc-Leu-Tyr-AMC at 400 μM in 50 μl of a reaction buffer containing 135 mM NaCl; 5 mM KCl; 4 mM CaCl2; 1 mM MgCl2; 10 mM Glucose; 10 mM HEPES pH 7.25 for 20 min at room temperature. The calcium influx, necessary to activate the cellular calpains, is evoked by the addition of 50 μl reaction buffer containing 20 μM of the calcium ionophore Br-A-23187 (Molecular Probes). The fluorescence of the cleavage product AMC is measured as described above during 60 min at 37° C. at intervals of 1 min. The IC50 values are determined as described above. Comparison of the IC50 determined in the enzymatic calpain inhibition assay to the IC50 determined in the C2C12 myoblasts calpain inhibition assay, allows to evaluate the cellular uptake or the membrane permeability of the substance.

In another series the target is T2, 20S Proteasome (Oryctolagus cuniculus, UniProt G1T4Q9).
T2 sequence (G1T4Q9 1-263): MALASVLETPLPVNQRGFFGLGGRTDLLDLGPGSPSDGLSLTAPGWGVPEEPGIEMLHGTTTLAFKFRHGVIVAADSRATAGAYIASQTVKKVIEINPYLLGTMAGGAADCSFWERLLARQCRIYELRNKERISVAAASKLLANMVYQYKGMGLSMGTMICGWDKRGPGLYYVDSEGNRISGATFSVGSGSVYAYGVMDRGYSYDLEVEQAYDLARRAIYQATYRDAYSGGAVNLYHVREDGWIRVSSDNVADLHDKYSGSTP
Kind of series: 20S Proteasome Assay. Type of series: biochemical. Particulars: Rabbit, read-out: 20S Prot IC50. As for the experimental part:
25 μl of a reaction buffer containing 400 μM of the fluorogenic substrate Suc-Leu-Leu-Val-Tyr-AMC (Bachem) are dispensed per well of a white microtiter plate. Test compounds dissolved in 0.5 μl DMSO are added. To start the reaction; 25 μl of reaction buffer containing 35 ng of enzyme (20S Proteasome, Rabbit, Calbiochem) are added. The increase in fluorescence (excitation at 360 nm; emission at 440 nm) is measured over 30 min at 30° C. at 30″. The IC50's are then determined from the slopes.

Series [2] concerns utrophin protein levels in human DMD myotubes. Description: Utrophin Expression Assay in Human Myotubes. Type of series: cell-based. Particulars: 50 nM test compound. As for the experimental part: Utrophin induction was determined by a method which was similar to a method of 1. Courdier-Fruh et al., Neuromuscular Disord., 2002, 12, S95-S104. Primary human muscle cell cultures were prepared from muscle biopsies taken during orthopedic surgery from Duchenne patients (provided by the Association Francaise contre les Myopathies). Cultures were prepared and maintained according to standard protocols. Induction of utrophin expression in human DMD myotubes was assayed at 50 nM or 500 nM of test compound added in differentiation medium. Normalized utrophin protein levels are determined after 56 d of incubation by cell-based ELISA with a mouse monoclonal antibody to the aminoterminal portion of utrophin (NCL-DRP2, Novocastra Laboratories). For calibration, the cell density and differentiation was determined by absorbance measurements of the total dehydrogenase enzyme activity in each well using the calorimetric CellTiter 96®AQ One Solution Reagent Proliferation Assay (Promega) according to the manufacturer's recommendation. Subsequently, cells were fixed, washed, permeabilized with 0.5% (v/v) Triton X-100 and unspecific antibody binding-sites blocked by standard procedures. Utrophin protein levels were determined immunologically with utrophin-specific primary antibody and with an appropriate peroxidase-coupled secondary antibody (Jackson ImmunoResearch Laboratories) using QuantaBlu™ Fluorogenic Peroxidase Substrate Kit (Pierce) for detection. Fluorescence measurements were carried out with a multilabel counter (Wallac) at λex=355 nm and at λem=460 nm. The primary readout of this signal is presented in arbitrary units. For calibration, the arbitrary units representing the relative utrophin protein content of each well was divided by the corresponding cell-titer absorbance value to correct for cell density. For comparison between experiments, the cell-titer corrected readout for utrophin protein content in each well was expressed in percent of solvent treated control cultures (set to 100%), i.e. data are % utrophin protein levels compared to DMSO solvent (N=4).

Series [3] deals with experimental muscular dystrophy in hamster. Particulars: Journal of Pharmacobiodynamics, 1987, 10, 678; cited from earlier work.

With `CCNC(=O)C(=O)[C@H](Cc1ccc(Cl)cc1)NC(=O)[C@@H](NC(=O)[C@H](Cc1ccccc1)NC(=O)CCCCC1CCSS1)C(C)C` (stereo partly shown) [Example 1], the IC50 worked out at 45 nM at human μ-calpain and 200 nM in series [1].
In turn, `CCNC(=O)C(=O)C(Cc1ccc(OC)cc1)NC(=O)C(NC(=O)C(Cc1csc2ccccc12)NC(=O)CCCCC1CCS[S+]1[O-])C(C)C` (stereo not shown) [Example 606] yielded a melting point of 190 to 192 °C. For the same compound, the IC50 on human μ-calpain is 16 nM. Further, the IC50 in series [1] turned out to be 28 nM. Further, at 20S Proteasome, the IC50 turned out to be 10 nM. In series [2], the “UTR Induction @50 nM” value was 151%.
On the same counts, the results for `CCNC(=O)C(=O)C(Cc1ccccc1)NC(=O)C(NC(=O)C(Cc1cccc2ccccc12)NC(=O)CCCCC1CCSS1)C(C)C` (stereo not shown) [Example 735] are 220 °C, 35 nM, 20 nM, 27 nM and 134%.
As for `CCOC(=O)[C@H]1O[C@@H]1C(=O)N[C@@H](CC(C)C)C(=O)NCCC(C)C` [Example E-64-d], the “life-prolonging effect in experimental muscular dystrophy” value in series [3] was “life-prolonging effect”.

(Values after patent US20070293486A1, “Alpha-Keto Carbonyl Calpain Inhibitors” (SANTHERA PHARMACEUTICALS (SCHWEIZ) AG, priority 2004, published 2007).)
